Reference: ChEMBL document CHEMBL1127937, “Dual metalloprotease inhibitors. I. constrained peptidomimetics of mercaptoacyl dipeptides” (Bioorg Med Chem Lett, 1994)
pIC50: −log10 of the molar value.

Columns and labels:
[1] = molecular target: Angiotensin-converting enzyme (Homo sapiens, UniProt P12821); test: Tested in vitro for inhibition of Angiotensin converting enzyme (ACE); details: read-out: I50
Rattus norvegicus = test: Tested in vivo for inhibition of angiotensin I -induced pressor response in normotensive rats after iv administration; format: functional
Neprilysin = Neprilysin (Homo sapiens, UniProt P08473); test: Tested in vitro for inhibition of neutral endopeptidase (NEP); details: read-out: I50
Chain of Neprilysin (P08473 whole entry): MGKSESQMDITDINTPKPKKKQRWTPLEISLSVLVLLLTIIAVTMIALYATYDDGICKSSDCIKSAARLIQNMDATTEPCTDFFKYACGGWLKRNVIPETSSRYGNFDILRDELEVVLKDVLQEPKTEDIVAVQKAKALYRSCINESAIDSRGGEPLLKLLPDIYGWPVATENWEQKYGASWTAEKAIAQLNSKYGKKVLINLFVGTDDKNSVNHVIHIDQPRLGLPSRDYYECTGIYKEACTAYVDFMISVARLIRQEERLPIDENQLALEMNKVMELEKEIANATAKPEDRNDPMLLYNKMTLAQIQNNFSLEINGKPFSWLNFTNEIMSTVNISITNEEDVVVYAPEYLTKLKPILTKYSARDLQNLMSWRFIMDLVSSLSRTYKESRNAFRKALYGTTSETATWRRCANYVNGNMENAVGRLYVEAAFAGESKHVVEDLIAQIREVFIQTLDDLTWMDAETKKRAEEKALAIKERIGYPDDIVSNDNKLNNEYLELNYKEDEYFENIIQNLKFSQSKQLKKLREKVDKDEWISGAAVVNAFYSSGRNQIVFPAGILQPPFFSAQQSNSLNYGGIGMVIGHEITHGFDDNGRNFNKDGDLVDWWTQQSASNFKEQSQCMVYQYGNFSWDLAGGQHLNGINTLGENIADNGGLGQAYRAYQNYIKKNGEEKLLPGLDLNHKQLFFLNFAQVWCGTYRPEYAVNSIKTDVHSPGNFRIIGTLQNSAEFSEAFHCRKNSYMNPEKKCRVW

Chain of Angiotensin-converting enzyme (P12821 whole entry): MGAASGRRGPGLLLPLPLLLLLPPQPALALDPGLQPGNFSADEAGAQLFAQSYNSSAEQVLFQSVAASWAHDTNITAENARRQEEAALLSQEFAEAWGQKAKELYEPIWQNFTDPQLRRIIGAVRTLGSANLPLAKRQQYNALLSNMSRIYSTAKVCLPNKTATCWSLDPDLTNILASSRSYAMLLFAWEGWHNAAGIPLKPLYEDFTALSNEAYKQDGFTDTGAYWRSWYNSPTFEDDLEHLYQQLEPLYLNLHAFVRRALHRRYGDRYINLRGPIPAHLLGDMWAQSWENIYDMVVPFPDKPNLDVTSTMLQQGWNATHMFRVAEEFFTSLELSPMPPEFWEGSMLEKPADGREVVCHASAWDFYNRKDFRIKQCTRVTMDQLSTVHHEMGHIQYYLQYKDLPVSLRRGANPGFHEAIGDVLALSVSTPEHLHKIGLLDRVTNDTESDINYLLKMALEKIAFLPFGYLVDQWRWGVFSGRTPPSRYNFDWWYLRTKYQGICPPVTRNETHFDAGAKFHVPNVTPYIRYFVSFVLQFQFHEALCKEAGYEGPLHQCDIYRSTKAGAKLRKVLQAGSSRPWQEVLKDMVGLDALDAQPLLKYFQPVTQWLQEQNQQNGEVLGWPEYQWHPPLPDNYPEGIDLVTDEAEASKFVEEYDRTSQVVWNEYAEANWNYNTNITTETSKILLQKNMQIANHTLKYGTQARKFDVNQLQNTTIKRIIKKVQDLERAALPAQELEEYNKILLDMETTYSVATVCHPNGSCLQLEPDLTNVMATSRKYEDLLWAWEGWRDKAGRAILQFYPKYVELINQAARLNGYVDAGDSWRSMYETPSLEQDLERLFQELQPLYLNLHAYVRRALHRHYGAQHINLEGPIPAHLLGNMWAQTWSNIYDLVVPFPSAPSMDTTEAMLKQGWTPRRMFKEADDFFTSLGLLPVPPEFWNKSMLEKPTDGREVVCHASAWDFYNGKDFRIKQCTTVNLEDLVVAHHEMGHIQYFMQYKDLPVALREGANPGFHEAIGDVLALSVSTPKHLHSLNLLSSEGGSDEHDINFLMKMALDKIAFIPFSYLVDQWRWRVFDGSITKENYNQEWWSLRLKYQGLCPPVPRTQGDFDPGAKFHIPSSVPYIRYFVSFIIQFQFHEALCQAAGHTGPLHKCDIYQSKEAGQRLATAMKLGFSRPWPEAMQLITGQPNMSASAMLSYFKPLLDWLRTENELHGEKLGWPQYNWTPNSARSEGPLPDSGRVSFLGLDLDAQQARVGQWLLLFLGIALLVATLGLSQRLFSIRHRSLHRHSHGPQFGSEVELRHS

| SMILES | pIC50 [1] | ED50 (Rattus norvegicus) | pIC50 (Neprilysin) |
| --- | --- | --- | --- |
| C[C@H]1Oc2ccccc2N(CC(=O)O)C(=O)[C@H]1NC(=O)[C@@H](S)Cc1ccccc1 | 7.89 | 0.015 µmol/kg | 6.93 |
| C[C@@H]1Oc2ccccc2N(CC(=O)O)C(=O)[C@H]1NC(=O)[C@@H](S)Cc1ccccc1 | 7.44 | 2.1 µmol/kg | 8.28 |
| O=C(O)CN1C(=O)[C@@H](NC(=O)[C@@H](S)Cc2ccccc2)CCc2ccccc21 | – | 0.02 µmol/kg | 8.21 |
| O=C(O)CN1C(=O)[C@@H](NC(=O)[C@@H](S)Cc2ccccc2)COc2ccccc21 | 7.55 | 0.26 µmol/kg | 8.51 |
| C[C@H](NC(=O)[C@@H](S)Cc1ccccc1)C(=O)N1CCC[C@H]1C(=O)O | 7.52 | 0.06 µmol/kg | 6.40 |
| O=C(O)CCN1C(=O)[C@@H](NC(=O)[C@@H](CS)Cc2ccccc2)CCc2ccccc21 | 7.44 | 13.3 µmol/kg | 8.77 |
| O=C(O)CCN1C(=O)[C@@H](NC(=O)[C@@H](S)Cc2ccccc2)COc2ccccc21 | 7.51 | 1.2 µmol/kg | 8.92 |
| O=C(O)CN1C(=O)[C@@H](NC(=O)[C@@H](CS)Cc2ccccc2)CSc2ccccc21 | 7.77 | 4 µmol/kg | 9.00 |
| O=C(O)CCN1C(=O)[C@@H](NC(=O)[C@@H](S)Cc2ccccc2)CSc2ccccc21 | 7.85 | 0.33 µmol/kg | 8.66 |
| O=C(O)CN1C(=O)[C@@H](NC(=O)[C@@H](S)Cc2ccccc2)CSc2ccccc21 | 7.89 | 0.14 µmol/kg | 7.19 |
| C[C@H](NC(=O)[C@@H](CS)Cc1ccccc1)C(=O)N1CCC[C@H]1C(=O)O | 8.40 | 0.5 µmol/kg | 8.18 |
| O=C(O)CN1C(=O)[C@@H](NC(=O)[C@@H](CS)Cc2ccccc2)COc2ccccc21 | 8.36 | 5.8 µmol/kg | 9.22 |
| C[C@H]1Oc2ccccc2N(CCC(=O)O)C(=O)[C@H]1NC(=O)[C@@H](S)Cc1ccccc1 | 7.74 | – | 7.08 |
| O=C(O)CCN1C(=O)[C@@H](NC(=O)[C@@H](S)Cc2ccccc2)CCc2ccccc21 | 7.44 | 1.34 µmol/kg | 8.62 |
| O=C(O)CN1C(=O)[C@@H](NC(=O)[C@@H](CS)Cc2ccccc2)CCc2ccccc21 | 8.32 | 0.52 µmol/kg | 8.68 |
